Starred links: 1 amine or outer side, 2 acyl side, 3 side chain; linkers in the order of their positions; H or OH if unused. Positions of bridges follow the written chain, without caps; N, C: chain ends. Non-standard residues stand in square brackets, D forms with d. Residues, ends and D or L forms follow the SMILES beside them. No end group written: not given here. *: point of attachment. C18 diacid = O=C(O)CCCCCCCCCCCCCCCCC(=O)*; γGlu = O=C(O)[C@H](CCC(=O)[*:2])N[*:1]; AEEA = NCCOCCOCC(=O)O
Molecular target: T1, human natriuretic peptide receptor 2 (hNPR2) (Homo sapiens, UniProt P20594)
T1 construct: expressed in transfected cells; host or cells: HEK293 (ATCC CRL-1573), clone 35, co-transfected with pGloSensor-42F
T1 sequence (P20594 23-1047): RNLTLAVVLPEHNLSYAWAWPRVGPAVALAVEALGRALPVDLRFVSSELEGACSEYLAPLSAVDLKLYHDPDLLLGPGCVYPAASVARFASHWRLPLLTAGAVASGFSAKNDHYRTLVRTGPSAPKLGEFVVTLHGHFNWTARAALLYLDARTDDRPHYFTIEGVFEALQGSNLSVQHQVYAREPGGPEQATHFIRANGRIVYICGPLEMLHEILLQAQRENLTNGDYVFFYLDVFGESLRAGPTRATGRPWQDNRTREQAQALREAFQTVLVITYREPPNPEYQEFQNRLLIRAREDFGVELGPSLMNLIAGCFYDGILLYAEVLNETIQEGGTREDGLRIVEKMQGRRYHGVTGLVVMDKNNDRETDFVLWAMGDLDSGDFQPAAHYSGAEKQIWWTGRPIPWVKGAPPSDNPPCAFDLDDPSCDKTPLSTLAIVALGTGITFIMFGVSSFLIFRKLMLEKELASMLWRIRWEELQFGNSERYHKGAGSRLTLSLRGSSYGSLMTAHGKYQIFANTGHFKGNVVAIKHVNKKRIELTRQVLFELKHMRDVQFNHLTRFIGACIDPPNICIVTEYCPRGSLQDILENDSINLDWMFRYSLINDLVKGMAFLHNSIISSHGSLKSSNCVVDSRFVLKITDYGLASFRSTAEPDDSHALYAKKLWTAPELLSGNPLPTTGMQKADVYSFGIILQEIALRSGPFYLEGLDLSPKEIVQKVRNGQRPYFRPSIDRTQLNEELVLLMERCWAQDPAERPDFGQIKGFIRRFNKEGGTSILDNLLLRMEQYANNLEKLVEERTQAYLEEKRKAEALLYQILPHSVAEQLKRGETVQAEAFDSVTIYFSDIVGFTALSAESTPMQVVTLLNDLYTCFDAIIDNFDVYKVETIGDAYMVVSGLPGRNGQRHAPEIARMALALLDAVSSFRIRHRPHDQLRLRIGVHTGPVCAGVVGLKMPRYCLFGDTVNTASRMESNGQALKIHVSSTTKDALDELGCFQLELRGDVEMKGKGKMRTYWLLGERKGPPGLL
Assay: In vitro hNPR2 activity assay (cGMP GloSensor reporter, HEK293)
Type: cell-based
Details: for hNPR2 0% HSA. [EC50% rel CNP]: potency relative to CNP22 (0065); for EC50: 0% HSA, HEK293-hNPR2/GloSensor cells
Procedure, shortened: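 Potency is the EC50 from a four-parameter logistic fit, also expressed relative to the in-plate CNP22 control (×100), with at least two replicates. Compounds (ten concentrations, […], HSA-free diluent with 1% OVA, 0.01% Tween20) were incubated 30 min at 37 °C on HEK293 cells co-expressing hNPR2 and a GloSensor cGMP luciferase. Luminescence detected with Bright-Glo.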

Compound | hNPR2 0% HSA. [EC50% rel CNP] [%] | EC50 [nM]
CC[C@H](C)[C@@H]1NC(=O)[C@H](CCCNC(=N)N)NC(=O)[C@H](CC(=O)O)NC(=O)[C@H](CC(C)C)NC(=O)[C@@H]2CCCN2C(=O)[C@H](CC(C)C)NC(=O)CNC(=O)[C@H](Cc2ccccc2)NC(=O)[C@@H](NC(=O)CNC(=O)[C@H](CCC(N)=O)NC(=O)[C@H](CO)NC(=O)[C@H](CC(C)C)NC(=O)CNC(=O)[C@H](CCCCN)NC(=O)[C@H](CCCCN)NC(=O)[C@H](CCC(N)=O)NC(=O)[C@H](C)NC(=O)CNC(=O)[C@H](CCCCN)NC(=O)[C@H](Cc2ccc(O)cc2)NC(=O)[C@H](CCCCN)NC(=O)[C@H](CCCNC(=N)N)NC(=O)[C@H](C)NC(=O)COCCOCCNC(=O)COCCOCCNC(=O)COCCOCCNC(=O)CC[C@H](NC(=O)CC[C@H](NC(=O)CC[C@H](NC(=O)CC[C@H](NC(=O)CCCCCCCCCCCCCCCCC(=O)O)C(=O)O)C(=O)O)C(=O)O)C(=O)O)CSSC[C@@H](C(=O)O)NC(=O)CNC(=O)[C@H](CC(C)C)NC(=O)CNC(=O)[C@H](CO)NC(=O)[C@H](CC(C)C)NC(=O)[C@H](CO)NC(=O)CNC1=O [compound 1455] ({C18 diacid-γGlu-γGlu-γGlu-γGlu-AEEA-AEEA-AEEA}-ARKYKGAQKKGLSQGCFGLPLDRIGSLSGLGC-OH; disulfide 16-32) | 43.4 | 
CC[C@H](C)[C@@H]1NC(=O)[C@H](CCCNC(=N)N)NC(=O)[C@H](CC(=O)O)NC(=O)[C@H](CC(C)C)NC(=O)[C@H](CCCCN)NC(=O)[C@H](CC(C)C)NC(=O)CNC(=O)[C@H](Cc2ccccc2)NC(=O)[C@@H](NC(=O)CNC(=O)[C@H](CCCCN)NC(=O)[C@H](CO)NC(=O)[C@H](CC(C)C)NC(=O)CNC(=O)[C@H](CCCCN)NC(=O)[C@H](CCC(=O)O)NC(=O)[C@H](CCC(N)=O)NC(=O)[C@H](C)NC(=O)CNC(=O)[C@H](CCCCN)NC(=O)[C@H](Cc2ccc(O)cc2)NC(=O)COCCOCCNC(=O)COCCOCCNC(=O)CC[C@H](NC(=O)CCCCCCCCCCCCCCCCC(=O)O)C(=O)O)CSSC[C@@H](C(=O)O)NC(=O)CNC(=O)[C@H](CC(C)C)NC(=O)CNC(=O)[C@H](CO)NC(=O)[C@H](CC(C)C)NC(=O)[C@H](CO)NC(=O)CNC1=O [compound 1232] ({C18 diacid-γGlu-AEEA-AEEA}-YKGAQEKGLSKGCFGLKLDRIGSLSGLGC-OH; disulfide 13-29; C-terminus assumed) | 16.0 | 1.63
CC[C@H](C)[C@@H]1NC(=O)[C@H](CCCNC(=N)N)NC(=O)[C@H](CC(=O)O)NC(=O)[C@H](CC(C)C)NC(=O)[C@H](CCCCN)NC(=O)[C@H](CC(C)C)NC(=O)CNC(=O)[C@H](Cc2ccccc2)NC(=O)[C@@H](NC(=O)CNC(=O)[C@H](CCCCN)NC(=O)[C@H](CO)NC(=O)[C@H](CC(C)C)NC(=O)CNC(=O)[C@H](CCCCN)NC(=O)[C@H](CCCCN)NC(=O)[C@H](CCC(N)=O)NC(=O)[C@H](C)NC(=O)CNC(=O)[C@H](CCC(=O)O)NC(=O)[C@H](CCC(=O)O)NC(=O)COCCOCCNC(=O)COCCOCCNC(=O)CC[C@H](NC(=O)CCCCCCCCCCCCCCCCC(=O)O)C(=O)O)CSSC[C@@H](C(=O)O)NC(=O)CNC(=O)[C@H](CC(C)C)NC(=O)CNC(=O)[C@H](CO)NC(=O)[C@H](CC(C)C)NC(=O)[C@H](CO)NC(=O)CNC1=O [compound 1222] | 14.3 | 2.94
CC[C@H](C)[C@@H]1NC(=O)[C@H](CCCNC(=N)N)NC(=O)[C@H](CC(=O)O)NC(=O)[C@H](CC(C)C)NC(=O)[C@@H]2CCCN2C(=O)[C@H](CC(C)C)NC(=O)CNC(=O)[C@H](Cc2ccccc2)NC(=O)[C@@H](NC(=O)CNC(=O)[C@H](CCC(N)=O)NC(=O)[C@H](CO)NC(=O)CNC(=O)CNC(=O)[C@H](CCCCN)NC(=O)[C@H](CCCCN)NC(=O)[C@H](CCC(N)=O)NC(=O)[C@H](C)NC(=O)CNC(=O)[C@H](CCCCN)NC(=O)[C@H](Cc2ccc(O)cc2)NC(=O)[C@H](CCCCN)NC(=O)[C@H](Cc2c[nH]cn2)NC(=O)[C@H](C)NC(=O)[C@H](CCC(N)=O)NC(=O)[C@@H]2CCCN2C(=O)[C@H](Cc2c[nH]cn2)NC(=O)[C@H](CCC(=O)O)NC(=O)[C@H](CCC(N)=O)NC(=O)COCCOCCNC(=O)COCCOCCNC(=O)CC[C@H](NC(=O)CC[C@H](NC(=O)CC[C@H](NC(=O)CC[C@H](NC(=O)CCCCCCCCCCCCCCCCC(=O)O)C(=O)O)C(=O)O)C(=O)O)C(=O)O)CSSC[C@@H](C(=O)O)NC(=O)CNC(=O)[C@H](CC(C)C)NC(=O)CNC(=O)[C@H](CO)NC(=O)[C@H](CC(C)C)NC(=O)[C@H](CO)NC(=O)CNC1=O [compound 1400] ({C18 diacid-γGlu-γGlu-γGlu-γGlu-AEEA-AEEA}-QEHPQAHKYKGAQKKGGSQGCFGLPLDRIGSLSGLGC-OH; disulfide 21-37) | 85.3 | 
CC[C@H](C)[C@@H]1NC(=O)[C@H](CCCNC(=N)N)NC(=O)[C@H](CC(=O)O)NC(=O)[C@H](CC(C)C)NC(=O)[C@@H]2CCCN2C(=O)[C@H](CC(C)C)NC(=O)CNC(=O)[C@H](Cc2ccccc2)NC(=O)[C@@H](NC(=O)CNC(=O)[C@H](CO)NC(=O)[C@H](CO)NC(=O)[C@H](CC(C)C)NC(=O)CNC(=O)[C@@H](NC(=O)[C@H](CCCCN)NC(=O)[C@H](CCC(N)=O)NC(=O)[C@H](C)NC(=O)CNC(=O)[C@H](Cc2c[nH]cn2)NC(=O)[C@H](Cc2ccc(O)cc2)NC(=O)COCCOCCNC(=O)COCCOCCNC(=O)CC[C@H](NC(=O)CCCCCCCCCCCCCCCCC(=O)O)C(=O)O)[C@@H](C)O)CSSC[C@@H](C(=O)O)NC(=O)CNC(=O)[C@H](CC(C)C)NC(=O)CNC(=O)[C@H](CO)NC(=O)[C@H](CC(C)C)NC(=O)[C@H](CO)NC(=O)CNC1=O [compound 1302] ({C18 diacid-γGlu-AEEA-AEEA}-YHGAQKTGLSSGCFGLPLDRIGSLSGLGC-OH; disulfide 13-29) | 26.5 | 
CC[C@H](C)[C@@H]1NC(=O)[C@H](CCCNC(=N)N)NC(=O)[C@H](CC(=O)O)NC(=O)[C@H](CC(C)C)NC(=O)[C@@H]2CCCN2C(=O)[C@H](CC(C)C)NC(=O)CNC(=O)[C@H](Cc2ccccc2)NC(=O)[C@@H](NC(=O)CNC(=O)[C@H](CCC(N)=O)NC(=O)[C@H](CO)NC(=O)CNC(=O)CNC(=O)[C@H](CCCCN)NC(=O)[C@H](CCCCN)NC(=O)[C@H](CCC(N)=O)NC(=O)[C@H](C)NC(=O)CNC(=O)[C@H](CCCCN)NC(=O)[C@H](Cc2ccc(O)cc2)NC(=O)[C@H](CCCCN)NC(=O)[C@H](CCCNC(=N)N)NC(=O)[C@H](C)NC(=O)[C@H](CCC(N)=O)NC(=O)[C@@H]2CCCN2C(=O)[C@H](Cc2c[nH]cn2)NC(=O)[C@H](CCC(=O)O)NC(=O)[C@H](CCC(N)=O)NC(=O)COCCOCCNC(=O)COCCOCCNC(=O)CC[C@H](NC(=O)CC[C@H](NC(=O)CC[C@H](NC(=O)CC[C@H](NC(=O)CC[C@H](NC(=O)CC[C@H](NC(=O)CCCCCCCCCCCCCCCCC(=O)O)C(=O)O)C(=O)O)C(=O)O)C(=O)O)C(=O)O)C(=O)O)CSSC[C@@H](C(=O)O)NC(=O)CNC(=O)[C@H](CC(C)C)NC(=O)CNC(=O)[C@H](CO)NC(=O)[C@H](CC(C)C)NC(=O)[C@H](CO)NC(=O)CNC1=O [compound 1403] ({C18 diacid-γGlu-γGlu-γGlu-γGlu-γGlu-γGlu-AEEA-AEEA}-QEHPQARKYKGAQKKGGSQGCFGLPLDRIGSLSGLGC-OH; disulfide 21-37) | 87.1 | 
{C18 diacid}-EEEEE[AEEA][AEEA][AEEA][AEEA]ARKYKGAQKKGLSQGCFGLPLDRIGSLSGLGC (disulfide 25-41) [compound 1475] | 46.5 | 
CC[C@H](C)[C@@H]1NC(=O)[C@H](CCCNC(=N)N)NC(=O)[C@H](CC(=O)O)NC(=O)[C@H](CC(C)C)NC(=O)[C@@H]2CCCN2C(=O)[C@H](CC(C)C)NC(=O)CNC(=O)[C@H](Cc2ccccc2)NC(=O)[C@@H](NC(=O)CNC(=O)[C@H](CO)NC(=O)[C@H](CO)NC(=O)[C@H](CC(C)C)NC(=O)CNC(=O)[C@H](CCCCN)NC(=O)[C@H](CCCCN)NC(=O)[C@H](CCC(N)=O)NC(=O)[C@H](C)NC(=O)CNC(=O)[C@H](CCC(=O)O)NC(=O)[C@H](Cc2ccc(O)cc2)NC(=O)COCCOCCNC(=O)COCCOCCNC(=O)CC[C@H](NC(=O)CC[C@H](NC(=O)CCCCCCCCCCCCCCCCC(=O)O)C(=O)O)C(=O)O)CSSC[C@@H](C(=O)O)NC(=O)CNC(=O)[C@H](CC(C)C)NC(=O)CNC(=O)[C@H](CO)NC(=O)[C@H](CC(C)C)NC(=O)[C@H](CO)NC(=O)CNC1=O [compound 1290] ({C18 diacid-γGlu-γGlu-AEEA-AEEA}-YEGAQKKGLSSGCFGLPLDRIGSLSGLGC-OH; disulfide 13-29) | 7.0 | 

— US20240209028A1, “CNP COMPOUNDS” (priority 2022, published 2024)
